Results as given in PMC10046961, “High-Throughput Screening Assay for Detecting Drug-Induced Changes in Synchronized Neuronal Oscillations and Potential Seizure Risk Based on Ca^2+ Fluorescence Measurements in Human Induced Pluripotent Stem Cell (hiPSC)-Derived Neuronal 2D and 3D Cultures” (Cells, 2023).
Like-named read-outs stand apart in the source and are kept apart here. Marks after values point to notes of the source that are not given here.

Assays:
[1] = test system: hiPSC-derived neurons co-cultured with human primary astrocytes in 2D; test: Ca2+ transient oscillation assay (FDSS), 2D co-culture; format: cell-based; settings: for activation at 0.37 µM / activation at 1.11 µM / activation at 3.33 µM / activation at 10 µM: Homo sapiens, 1 h
Text: (§1) In this study, we used cryopreserved excitatory neurons that were differentiated from human induced pluripotent stem cells (hiPSCs; Cat #: EX-SeV-CW50065) (Elixirgen Scientific, Inc., Baltimore, MD, USA). The hiPSCs used, namely, CW50065 were derived from a healthy person and distributed by the California Institute of Regenerative Medicine Human Induced Pluripotent Stem Cell Repository. Human iPSC-derived excitatory neurons were differentiated from CW50065 using a proprietary cocktail of differentiation-inducing factors called Quick-Neuron™ EX-SeV (Batch number: EX-SeV-CW50065-L; Elixirgen Scientific, Inc.), cryopreserved 3 days after differentiation induction and distributed. Human iPSC-derived excitatory neurons were recovered from cryopreservation and maintained essentially as instructed by the manufacturer.
(§2) Cryopreserved human primary astrocytes (#N7805100, Thermo Fisher Scientific, Waltham, MA, USA) were recovered as instructed by the manufacturer and seeded in a 10 cm dish at the density of 2,000,000 cells. The culture was maintained using the Human Astrocytes Kit (#N7805200, Thermo Fisher Scientific) for 12 days. Half of the culture medium was replaced with fresh medium every 2–3 days during the culture period. These astrocytes were harvested using StemPro™ Accutase™ Cell Dissociation Reagent (#A1110501, Thermo Fisher Scientific) when they reached confluency. These cells were cryopreserved in STEM-CELLBANKER® GMP grade (ZENOGEN PHARMA, Kohriyama, Fukushima Japan) at the density of 2,000,000 cells per vial as working stocks for co-culture with neurons in 2D and 3D conditions described below. After a working stock was recovered, astrocytes were directly mixed with hiPSC-derived neurons for plating without further expansion.
Live neurons (hiPSC neurons) and human primary astrocytes were recovered from cryopreservation as described above and seeded in each well of 384-well plates at the density of 10,000 cells (HiPSC-cortical neurons) and human primary astrocytes at 2500 cells (ratio 4:1). These co-cultures were maintained under the medium conditions recommended by the manufacturer, namely Medium N(G2P), to complete the differentiation of excitatory neurons for the first week. […] Half of the culture medium was replaced with fresh medium every 3–4 days during the culture period.
After the incubation, the culture medium containing Cal-520 was replaced with 50 μL of HBSS supplemented with 0.1 mM MgCl2, 2 mM CaCl2, 10 mM HEPES, and 10 mM glucose and incubated at 37 ℃ for 15 min.
(§3) Prior to the fluorescence measurements, all wells to be measured were treated with 0.04% dimethyl sulfoxide (DMSO) to stabilize the oscillation signal. The first recording started 10 min after the addition of DMSO for each plate for 20 min. The effects of the test compound were recorded again starting 60 min after the administration of compounds, for 20 min.
Twenty-five compounds (Table 1) were first dissolved in either DMSO (most compounds) or distilled water depending on the compound, and further diluted with PBS to produce stock solutions concentrated 10-fold. […] The final concentration of DMSO was adjusted to 0.1%. Changes in the fluorescence intensity (FI) produced by Ca^2+ flux were measured at 37 °C for all wells of a 384-well plate simultaneously using the FDSS/µCell system (#C13299, Hamamatsu Photonics, Hamamatsu, Shizuoka, Japan). The excitation and the emission wavelengths were 470 nm and 540 nm, respectively. The recording duration was 20 min with a sampling frequency of 2 Hz for cells cultured under 2D conditions and 10 Hz for cells cultured under 3D conditions.

[2] = test system: hiPSC-derived neurons co-cultured with human primary astrocytes in 3D; test: Ca2+ transient oscillation assay (FDSS), 3D spheroids; format: cell-based; settings: for Area under the curve - 3D Mean / Peak Number—3D Mean / Peak amplitude - 3D Mean / Peak width - 3D Mean / Peak-to-peak interval - 3D Mean: 60 min
Text: as §1, §2
We used U-shaped-bottom 96-well plates (#174925, Thermo Fisher Scientific) without any prior coating to make a spheroid in each well. Neurons and astrocytes were seeded and maintained as described for 2D cultures, except for the following modifications. First, neurons and astrocytes were seeded in each well of the 96-well plates at the density of 8000 hiPSC neurons with 8000 human primary astrocytes (8000)/well (ratio 1:1). Second, when the differentiation of excitatory neurons was completed one week after seeding, cells were fed with BrainPhys^TM Neuronal Medium (#05793, […] Technologies, Vancouver, BC, Canada) supplemented with 2% SM1 Neuronal Supplement, 1% N2 Supplement-A, and 10% Neuron culture medium for 5 weeks.
Cells maintained as spheroids (3D) in the U-shaped-bottom 96-well plates were transferred into 384-well spheroid plates (#4516, Merck, Corning, NY, USA) with 25 µL of the culture medium. A Ca^2+-indicating dye solution including […] was prepared using the EarlyTox™ Cardiotoxicity Kit (#R8211, Molecular Devices, LLC, San Jose, CA, USA) according to the manufacturer. Then, the same volume of the dye solution was dispensed into each well.
as §3
Twenty-five compounds (Table 1) were first dissolved in either DMSO (most compounds) or distilled water depending on the compound, and further diluted with PBS to produce stock solutions concentrated 10-fold. Then, 5 μL of each compound solution was injected into each well using an automatic pipetting robot (#4505, ASSIST PLUS pipetting robot, Integra Biosciences Corp., Hudson, NH, USA), so that the final concentration of each compound was 1-fold nominal in the well.

[3] = ref PharmaPendium, cited from earlier work
[4] = read-out: Area under the curve - 2D Mean
[5] = read-out: Peak amplitude - 2D Mean
[6] = read-out: Peak-to-peak interval - 2D Mean

CCN(CC)CCCC(C)Nc1c2ccc(Cl)cc2nc2ccc(OC)cc12 (stereo not drawn) [Quinacrine, quinacrine]
activation at 0.37 µM ([1]; 0.37 µM, 60 min, read-out: Area under the curve - 2D Mean): 5.3% | activation at 0.37 µM ([1]; 0.37 µM, 60 min, read-out: Peak Number—2D Mean): -2.7% | activation at 0.37 µM ([1]; 0.37 µM, 60 min, read-out: Peak amplitude - 2D Mean): 1.8% | activation at 0.37 µM ([1]; 0.37 µM, 60 min, read-out: Peak width - 2D Mean): 2.8% | activation at 0.37 µM ([1]; 0.37 µM, 60 min, read-out: Peak-to-peak interval - 2D Mean): 7% | activation at 1.11 µM ([1]; 1.11 µM, 60 min, read-out: Area under the curve - 2D Mean): 11.2% | activation at 1.11 µM ([1]; 1.11 µM, 60 min, read-out: Peak Number—2D Mean): -2.8% | activation at 1.11 µM ([1]; 1.11 µM, 60 min, read-out: Peak amplitude - 2D Mean): 1.2% | activation at 1.11 µM ([1]; 1.11 µM, 60 min, read-out: Peak width - 2D Mean): 10.7% | activation at 1.11 µM ([1]; 1.11 µM, 60 min, read-out: Peak-to-peak interval - 2D Mean): -4% | activation at 3.33 µM ([1]; 3.33 µM, 60 min, read-out: Area under the curve - 2D Mean): -13.8% | activation at 3.33 µM ([1]; 3.33 µM, 60 min, read-out: Peak Number—2D Mean): -11% | activation at 3.33 µM ([1]; 3.33 µM, 60 min, read-out: Peak amplitude - 2D Mean): -7.8% | activation at 3.33 µM ([1]; 3.33 µM, 60 min, read-out: Peak width - 2D Mean): -12.8% | activation at 3.33 µM ([1]; 3.33 µM, 60 min, read-out: Peak-to-peak interval - 2D Mean): 40.2% | activation at 10 µM ([1]; 10 µM, 60 min, read-out: Area under the curve - 2D Mean): -84.7% | activation at 10 µM ([1]; 10 µM, 60 min, read-out: Peak Number—2D Mean): -92.2% | activation at 10 µM ([1]; 10 µM, 60 min, read-out: Peak amplitude - 2D Mean): -78% | activation at 10 µM ([1]; 10 µM, 60 min, read-out: Peak width - 2D Mean): -84.3% | activation at 10 µM ([1]; 10 µM, 60 min, read-out: Peak-to-peak interval - 2D Mean): -18.2% | Area under the curve - 3D Mean ([2]; 0.37 µM): 123.5 % change from baseline | Peak Number—3D Mean ([2]; 0.37 µM): 3.2 % change from baseline | Peak amplitude - 3D Mean ([2]; 0.37 µM): 113.4 % change from baseline | Peak width - 3D Mean ([2]; 0.37 µM): −1.8 % change from baseline | Peak-to-peak interval - 3D Mean ([2]; 0.37 µM): −0.7 % change from baseline | Area under the curve - 3D Mean ([2]; 1.11 µM): 149.1 % change from baseline | Peak Number—3D Mean ([2]; 1.11 µM): 0.4 % change from baseline | Peak amplitude - 3D Mean ([2]; 1.11 µM): 128.3 % change from baseline | Peak width - 3D Mean ([2]; 1.11 µM): 4.2 % change from baseline | Peak-to-peak interval - 3D Mean ([2]; 1.11 µM): 6.2 % change from baseline | Area under the curve - 3D Mean ([2]; 3.33 µM): 139.1 % change from baseline | Peak Number—3D Mean ([2]; 3.33 µM): 14.1 % change from baseline | Peak amplitude - 3D Mean ([2]; 3.33 µM): 108.9 % change from baseline | Peak width - 3D Mean ([2]; 3.33 µM): 10.6 % change from baseline | Peak-to-peak interval - 3D Mean ([2]; 3.33 µM): −5.5 % change from baseline | Area under the curve - 3D Mean ([2]; 10 µM): 128.2 % change from baseline | Peak Number—3D Mean ([2]; 10 µM): 12.5 % change from baseline | Peak amplitude - 3D Mean ([2]; 10 µM): 108.3 % change from baseline | Peak width - 3D Mean ([2]; 10 µM): 9.5 % change from baseline | Peak-to-peak interval - 3D Mean ([2]; 10 µM): −9.8 % change from baseline | Free Cmax ([3]; Table 1, peak plasma concentration in men, free therapeutic Cmax): 50 nM | Free Cmax ([3]; Table 2, highest plasma concentration in humans after the therapeutic dose): 50 nM

C=C(C)[C@H]1CN[C@H](C(=O)O)[C@H]1CC(=O)O [Kainic Acid]
response of positive controls on Ca2+ transient oscillations ([1]; 2D, 4-AP 30 µM, kainic acid 100 µM): significant responses | change of Ca2+ neuronal oscillations (Figure 1) ([1]; 4-AP at 30 µM, kainic acid at 10 µM): inhibition | activation at 0.37 µM [1, 4]: 32.3% | activation at 1.11 µM [1, 4]: 25.2% | activation at 3.33 µM [1, 4]: -48.2% | activation at 10 µM [1, 4]: -100% | activation at 0.37 µM ([1]; read-out: Peak Number—2D Mean): 21% | activation at 1.11 µM ([1]; read-out: Peak Number—2D Mean): 26.8% | activation at 3.33 µM ([1]; read-out: Peak Number—2D Mean): -53.3% | activation at 10 µM ([1]; read-out: Peak Number—2D Mean): -100% | activation at 0.37 µM [1, 5]: 11.8% | activation at 1.11 µM [1, 5]: -2.2% | activation at 3.33 µM [1, 5]: -55% | activation at 10 µM [1, 5]: -100% | activation at 0.37 µM ([1]; read-out: Peak width - 2D Mean): 22% | activation at 1.11 µM ([1]; read-out: Peak width - 2D Mean): 37.4% | activation at 3.33 µM ([1]; read-out: Peak width - 2D Mean): -23% | activation at 10 µM ([1]; read-out: Peak width - 2D Mean): -100% | activation at 0.37 µM [1, 6]: -1.2% | activation at 1.11 µM [1, 6]: -19.6% | activation at 3.33 µM [1, 6]: -53% | activation at 10 µM [1, 6]: -100% | Area under the curve - 3D Mean ([2]; 0.37 µM): 120.5 % change from baseline | Peak Number—3D Mean ([2]; 0.37 µM): 1.3 % change from baseline | Peak width - 3D Mean ([2]; 0.37 µM): 4.9 % change from baseline | Peak-to-peak interval - 3D Mean ([2]; 0.37 µM): 0.2 % change from baseline | Area under the curve - 3D Mean ([2]; 1.11 µM): 141.9 % change from baseline | Peak Number—3D Mean ([2]; 1.11 µM): 16.4 % change from baseline | Peak width - 3D Mean ([2]; 1.11 µM): 10.6 % change from baseline | Peak-to-peak interval - 3D Mean ([2]; 1.11 µM): −16.0 % change from baseline | Area under the curve - 3D Mean ([2]; 3.33 µM): 174.3 % change from baseline | Peak Number—3D Mean ([2]; 3.33 µM): 18.7 * % change from baseline | Peak width - 3D Mean ([2]; 3.33 µM): 41.9 % change from baseline | Peak-to-peak interval - 3D Mean ([2]; 3.33 µM): −13.0 % change from baseline | Area under the curve - 3D Mean ([2]; 10 µM): 58.3 % change from baseline | Peak Number—3D Mean ([2]; 10 µM): 102.8 ** % change from baseline | Peak width - 3D Mean ([2]; 10 µM): −20.1 % change from baseline | Peak-to-peak interval - 3D Mean ([2]; 10 µM): −45.2 % change from baseline | response of positive controls on Ca2+ transient oscillations ([2]; 3D, 4-AP 30 µM, kainic acid 100 µM): significant responses
